Here are results for 1 compound from US20190062428A1, “COMBINATION OF ANTI-CD47 ANTIBODIES AND CELL DEATH-INDUCING AGENTS, AND USES THEREOF” (Surface Oncology, Inc., priority 2017, published 2019).

The test deals with Ri-1 tumors. Put plainly: Ri-1 human B cell lymphoma (DLBCL) subcutaneous xenograft, tumor volume. The format is in vivo, CB.17 SCID mice. Conditions: FIG. 4. As to the method:
The Ri-1 cell line is a human B cell lymphoma line that represents the ABC-subtype of diffuse large cell B cell lymphoma (DLBCL) and harbors a BCL-2 amplification. ABT-199, also known as Venclexta™ or Venetoclax, is an oral BCL-2 inhibitor, and was used as the cell death-inducing agent.
Briefly, 1×10^7 Ri-1 cells were injected subcutaneously into the right flank of CB.17 SCID mice in a 1:1 mixture of RPMI and Matrigel. Tumors were allowed to grow until they were 200-300 mm^3.

Structures are written as SMILES.

Consider `CC1(C)CCC(CN2CCN(c3ccc(C(=O)NS(=O)(=O)c4ccc(NCC5CCOCC5)c([N+](=O)[O-])c4)c(Oc4cnc5[nH]ccc5c4)c3)CC2)=C(c2ccc(Cl)cc2)C1` [ABT-199, reference compound], for which the single-agent anti-tumor activity result (2.3D11 100 μg/mouse days 0, 3, 7, ABT-199 25 mg/kg days 0-4) is “potent single-agent anti-tumor activity”. Moreover, the tumor re-growth entry (single agents as above, combination: 2.3D11 100 μg/mouse day 0, then oral ABT-199 25 mg/kg days 3, 4, 5) is listed as “tumors re-grew”.
